Reference: PMC9775322, “An Integrated Analysis of Mechanistic Insights into Biomolecular Interactions and Molecular Dynamics of Bio-Inspired Cu(II) and Zn(II) Complexes towards DNA/BSA/SARS-CoV-2 3CL^pro by Molecular Docking-Based Virtual Screening and FRET Detection” (Biomolecules, 2022)

Key:
[1] = system: Pseudomonas aeruginosa; experiment: Agar disc diffusion antibacterial test; conditions: for diameter of clear zone inhibition / Inhibition %: D, (-) Pseudomonas aeruginosa; for diameter of clear zone inhibition: 20 µL of 100 µM on 6 mm disc, Control (DMSO) = 6 mm; for Inhibition %: (T–C)/T × 100
[2] = system: EB–DNA; experiment: Ethidium bromide displacement assay by fluorescence spectral titration; format: binding, calf; conditions: for LWB Method KLB (Lineweaver-Burk binding constant) / Scatchard Analysis KSA (Scatchard association binding constant) / Scatchard Analysis n (number of binding sites) / n (number of binding sites), DNA binding, Stern–Volmer Method–II / KSV (Stern-Volmer binding constant), DNA binding, Method–I / Kass (association binding constant), DNA binding, Stern–Volmer Method–II: EB–DNA; for LWB Method KLB (Lineweaver-Burk binding constant) / Scatchard Analysis KSA (Scatchard association binding constant) / Scatchard Analysis n (number of binding sites) / n (number of binding sites), DNA binding, Stern–Volmer Method–II / Kq (bimolecular quenching rate constant), DNA binding, Stern–Volmer Method–I: pH 7.4; for KSV (Stern-Volmer binding constant), DNA binding, Method–I / Kass (association binding constant), DNA binding, Stern–Volmer Method–II: pH 7.4, 610 nm; for Kq (bimolecular quenching rate constant), DNA binding, Stern–Volmer Method–I: Kq=KSV/τ0, τ0 = 10^−8 S, 610 nm; for P (ratio of fluorescence quantum efficiency of DNA bound and free complex): intercept of F/F0 vs 1/[DNA]; for ΔGb°, DNA binding, Stern–Volmer Method–II: −RT ln Kass, T = 298 K
Description: (§1) The DNA/BSA binding properties were acquired from the emission spectral titration with the supporting of the JASCO FP-6300 spectrofluorometer between the 200 and 800 nm regions. It is additional evidence for the complexes’ manner of DNA binding. While DNA (200 µM) was present or absent, we vigilantly monitored the intensity variations between 610 nm and 510 nm during the initial emission and excitation of EB [27]. Correspondingly, the emission titrations for BSA interaction with different concentrations between 2.5 μM and 25 μM for all samples were conducted in a Tris-HCl buffer solution (pH: 7.4) between the regions of 300 nm and 400 nm.
2.2.5. DNA/BSA binding assay by fluorescence titration
The titration was executed by the JASCO FP-6300 spectrofluorometer in the range of 200 – […]
DNA. To assess the relative DNA binding abilities of the test compound to CT-DNA, ethidium bromide (EB) was utilized as a reference. In the experiment, EB solution (20 µM) in 50 mM Tris –HCl /1 mM NaCl buffer solution (pH=7.2) was incubated with the DNA […]
solution (240 µM) at saturated binding levels and stored in a dark place for two hours. The tested compounds (1 –240 µM) were titrated with pre-incubated EB-bound DNA.
Additionally, from 610 nm to 510 nm, in the absence and presence of DNA (240 µM), the intensity changes for initial emission and excitation of EB were cautiously observed. As a conjugate planar molecule, EB's acquired fluorescence intensity is extremely low, but it […]
concentration of the compounds (0-240 µM), the intensity of the EB-DNA system decreases owing to the quenching effect of DNA by the manner of static quenching. It further attributes the generation of ground state DNA – complex adduct owing the cationic metal complexes interacting with the negatively charged oxygen in phosphodiester of DNA and the contraction of DNA pushes a few EB molecules out of DNA base pairs [ 27].
(§2) Fcorr = Fobs × e[(Aex× dex) + (Aem× dem)]/ 2 = Fobs × e(Aex + Aem)/ 2 (S12) Fcorr and F obs are represented as the IFE-corrected emission and observed (uncorrected) emission intensities, respectively. d ex and d em are denoted as the cuvette path lengths in the […]
(§3) excitation and emission directions, respectively. Also, the alteration in absorbance (OD) at the excitation and fluorescence wavelengths, respectively, is sometimes referred to as A ex and […]
(§4) F = 1+KSV [Q] = 1+ Kq τ0 (S13)
(§5) Where [Q] is represented as the sample concentration (quencher), the emission intensities F 0 and F are those in the […] of the quencher, respectively.
(§6) F ) = log Kass + nlog [Q] (S14)
(§7) KEB[EB] = Kapp[compound] (S15)
(§8) ∆F = (F 0–F), Equation (16) was utilized to examine the Lineweaver –Burk binding constant (KLB) from the linear regression plot of 1/(F0–F) vs 1/[Q]. […]
(§9) γ =(F0–F)/F0, CF is denoted as the concentration of sample alone, the linear regression plot of (γ/CF) vs γ was employed to support equation (17), which was used to determine the values of KSA and n, respectively.
(§10) 2.2.6. FRET calculation by Förster’s theory
(§11) Calculating FRET (Fluorescence Resonance Energy Transfer) is a crucial approach in determining the critical distance (r) between donor (BSA) and acceptor (test compound) molecules, in which the binding affinity between the BSA-complex systems could be evalued according to Förster’s theory. The overlap of the emission spectrum of the donor (BSA) and the absorption spectrum of the acceptor (compound) describes that the acceptor (compound) group may get excited as a result of the excited donor's (BSA) energy being lost to the ground

[3] = molecular target: T1, BSA (Bos taurus, UniProt P02769); experiment: BSA binding by fluorescence emission titration; set-up: species or system bovine; conditions: for KSV (Stern-Volmer binding constant), BSA binding, Method–I / Kass (association binding constant), BSA binding, Stern–Volmer Method–II / n (number of binding sites), BSA binding, Stern–Volmer Method–II: BSA emission 350 nm; for Kq (bimolecular quenching rate constant), BSA binding, Stern–Volmer Method–I: Kq=KSV/τ0, τ0 = 10^−8 S, BSA emission 350 nm (λex 278 nm); for P (ratio of fluorescence quantum efficiency), BSA binding: intercept of F/F0 vs 1/[BSA]; for ΔGb°, BSA binding, Stern–Volmer Method–II: −RT ln Kass, T = 298 K
T1 construct: purchased Sigma Aldrich
T1 sequence (P02769 25-607): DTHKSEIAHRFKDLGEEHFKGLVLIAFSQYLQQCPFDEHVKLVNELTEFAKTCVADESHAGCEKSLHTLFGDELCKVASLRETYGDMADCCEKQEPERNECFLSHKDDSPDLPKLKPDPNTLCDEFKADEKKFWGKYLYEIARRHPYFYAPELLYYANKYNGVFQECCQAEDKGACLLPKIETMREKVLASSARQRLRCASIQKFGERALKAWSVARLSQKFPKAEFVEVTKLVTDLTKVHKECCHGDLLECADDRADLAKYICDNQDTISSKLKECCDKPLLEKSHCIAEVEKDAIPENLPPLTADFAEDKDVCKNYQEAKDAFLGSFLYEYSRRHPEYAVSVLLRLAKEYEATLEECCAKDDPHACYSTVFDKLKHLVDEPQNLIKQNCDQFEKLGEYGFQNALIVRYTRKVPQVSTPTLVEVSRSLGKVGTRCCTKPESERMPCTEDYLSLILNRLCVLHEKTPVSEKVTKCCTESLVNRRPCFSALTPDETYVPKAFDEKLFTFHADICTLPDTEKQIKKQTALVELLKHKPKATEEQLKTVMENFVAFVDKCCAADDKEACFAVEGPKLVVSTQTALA
Description: as §1, with “nm. […]” for “nm.”
experiments were measured for BSA interaction in the range of 300 –400 nm, using a fluorescence cuvette with a path length of 1 cm. all test compounds have no substantial fluorescence emission rate in any of the above ranges in Tris-HCl buffer solution (pH=7.2).
Therefore, BSA interaction tests are not impaired in the interaction with the complexes [ 28].
In the experiment, the emission of BSA solution (25 µM) in 50 mM Tris –HCl /1 mM NaCl […]
While raising the test compound ’s concentration (0-25 µM), the intensity of the BSA decreases due to static quenching in the generation of ground state BSA – complex adduct. The observations of the BSA molecule at the excitation wavelength (278 nm) and at the emission wavelength (350 nm) that both of […]
as §2, §3, §4, §5, §6, §7, §8, §9, §10, §11

[4] = system: Escherichia coli; experiment: Agar disc diffusion antibacterial test; conditions: for diameter of clear zone inhibition / Inhibition %: A, (-) Escherichia coli; for diameter of clear zone inhibition: 20 µL of 100 µM on 6 mm disc, Control (DMSO) = 6 mm; for Inhibition %: (T–C)/T × 100
[5] = system: Salmonella enteric serovar typhi; experiment: Agar disc diffusion antibacterial test; format: cell-based; conditions: B; for Inhibition %: (T–C)/T × 100
[6] = system: Candida albicans; experiment: Agar disc diffusion antifungal test; conditions: for diameter of clear zone inhibition / Inhibition %: I; for diameter of clear zone inhibition: 20 µL of 100 µM on 6 mm disc, Control (DMSO) = 6 mm; for Inhibition %: (T–C)/T × 100
[7] = 20 µL of 100 µM on 6 mm disc, Control (DMSO) = 6 mm

Structure (SMILES)	diameter of clear zone inhibition [1] [mm]	Inhibition % [1] [%]	LWB Method KLB (Lineweaver-Burk binding constant) [2] [M⁻¹]	Scatchard Analysis KSA (Scatchard association binding constant) [2] [M⁻¹]	Scatchard Analysis n (number of binding sites) [2]	n (number of binding sites), DNA binding, Stern–Volmer Method–II [2]	KSV (Stern-Volmer binding constant), DNA binding, Method–I [2] [M⁻¹]	Kass (association binding constant), DNA binding, Stern–Volmer Method–II [2] [M⁻¹]	Kq (bimolecular quenching rate constant), DNA binding, Stern–Volmer Method–I [2] [M⁻¹ s⁻¹]	P (ratio of fluorescence quantum efficiency of DNA bound and free complex) [2]	ΔGb°, DNA binding, Stern–Volmer Method–II [2]	KSV (Stern-Volmer binding constant), BSA binding, Method–I [3] [M⁻¹]	Kass (association binding constant), BSA binding, Stern–Volmer Method–II [3] [M⁻¹]	n (number of binding sites), BSA binding, Stern–Volmer Method–II [3]	Kq (bimolecular quenching rate constant), BSA binding, Stern–Volmer Method–I [3] [M⁻¹ s⁻¹]	P (ratio of fluorescence quantum efficiency), BSA binding [3]	ΔGb°, BSA binding, Stern–Volmer Method–II [3]	Inhibition % [4] [%]	Inhibition % [5] [%]	Inhibition % [6] [%]	other results
[Cu+2].[O-]c1ccccc1N=Cc1ccc(N2CCOCC2)cc1.[O-]c1ccccc1N=Cc1ccc(N2CCOCC2)cc1.c1cnc2c(c1)ccc1cccnc12 [(1b), [Cu^II(L)2(phen)]]	9	33	21654	33302	1.008	1.088	40303	31817	4.0303e+12	0.128	–26.942 kJM^−1	95640	71990	1.021	9.564e+12	0.322	–27.71 kJM^−1	33	40	45	diameter of clear zone inhibition [4]: 9 mm; diameter of clear zone inhibition [5, 7]: 10 mm; diameter of clear zone inhibition [6]: 11 mm
[O-]c1ccccc1N=Cc1ccc(N2CCOCC2)cc1.[O-]c1ccccc1N=Cc1ccc(N2CCOCC2)cc1.[Zn+2].c1cnc2c(c1)ccc1cccnc12 [(2b), [Zn^II(L)2(phen)]]	08	25	18218	32941	0.909	1.083	20669	19688	2.0669e+12	0.124	–24.873 kJM^−1	79350	59840	1.009	7.935e+12	0.285	–27.25 kJM^−1	40	40	40	diameter of clear zone inhibition [4]: 10 mm; diameter of clear zone inhibition [5, 7]: 10 mm; diameter of clear zone inhibition [6]: 10 mm
Oc1ccccc1N=Cc1ccc(N2CCOCC2)cc1 [(HL), 2-(4-morpholinobenzylideneamino)phenol]		25	6985	23194	1.096	0.976	11636	9882	1.1636e+12	0.090	–22.790 kJM^−1	26390		0.958	2.639e+12	0.225	–23.86 kJM^−1	33	33	40	zone of inhibition at 100 µM ([1]; Pseudomonas aeruginosa, read-out: diameter of clear zone inhibition): 8 mm; zone of inhibition at 100 µM ([4]; Escherichia coli, read-out: diameter of clear zone inhibition): 9 mm; zone of inhibition at 100 µM ([5]; 20 µL of 100 µM on 6 mm disc, Control (DMSO) = 6 mm, read-out: diameter of clear zone inhibition): 9 mm; zone of inhibition at 100 µM ([6]; read-out: diameter of clear zone inhibition): 10 mm
